Several values for one entry are separate records, joined by “and”; a condition that tells them apart may be missing. Identical values can stand only once.
How the values were obtained:
[1] = test system: osteoclast; conditions: cited from earlier work
[2] = Assay of strontium in femoral bones by atomic absorption spectrometry; format: in vivo, rat; conditions: 3 weeks treatment, 68.2 mg/kg/d
Method: (§1) Administration to female Wistar rats weighing 200 g.
(§2) Volume of administration: 2 ml/kg.
(§3) Route of administration: Rectal route.
(§4) Dose frequency: Once a day—every 24 hours.
(§5) Treatment duration: 21 days.
(§6) The animals were sacrificed and the femoral bones were removed, cleaned of their tendinous and muscular attachments, then frozen.
Strontium was then assayed in the bones by atomic absorption spectrometry.
The assay of strontium in bone was carried out.

[3] = test system: female Wistar rats; assay: Femoral head (epiphyseal) diameter / bone growth after 21 days rectal treatment; format: in vivo, rat
Method: as §1
Number of animals per group: 6 and 8.
Text complex: NP05 (composition produced according to the invention, in which only the quantity of strontium varies).
as §2, §3, §4, §5, §6
The femoral epiphyseal diameter was measured.

[4] = test system: osteoblast; conditions: cited from earlier work
[5] = test system: rat model; conditions: administration for 8 weeks; cited from earlier work
[6] = test system: humans; conditions: in humans; cited from earlier work
[7] = test system: animal; conditions: cited from earlier work
[8] = test system: postmenopausal women; conditions: 2 mg per day, two years; cited from earlier work

[Cl-].[Cl-].[Sr+2] [Strontium chloride, strontium chloride]
osteoclast multiplication [1]: inhibition
strontium incorporation in bone compared with the controls [2]: 4
effect on bone growth ([3]; 3 weeks treatment, compared with control animals (NP05 also with the strontium chloride group)): no effect
Diameter of femoral head, Mean ([3]; group mean, 68.2 mg/kg strontium metal, rectal, 21 days): 4.01 millimeters
Diameter of femoral head, Femur 1 ([3]; individual rats, 68.2 mg/kg strontium metal, rectal, once a day, 21 days): 4 millimeters
Diameter of femoral head, Femur 2 ([3]; individual rats, 68.2 mg/kg strontium metal, rectal, once a day, 21 days, 68.2 mg/kg): 4 millimeters (7×) and 4.1 millimeters
osteoblast proliferation [4]: stimulation
minimum dose stimulating bone growth [5]: 68.2 mg of strontium (metal)

N#Cc1c(N(CC(=O)[O-])CC(=O)[O-])sc(C(=O)[O-])c1CC(=O)[O-].[Sr+2].[Sr+2] [strontium ranelate]
osteoclast multiplication [1]: inhibition
amount necessary to obtain therapeutic activity [6]: 2 g/day
dose required for therapeutic activity in animal studies ([7]; as strontium ranelate, corresponding to 68.2 mg of strontium metal): 200 mg per day
dose causing toxic effects (osteomalacic bone lysis) ([7]; ranelate dose, four times the active dose): above 800 mg per day
bone alkaline phosphatase (marker of bone formation) [8]: significantly increased
bone mineral density in the lumbar spine [8]: significant increase
marker of bone resorption [8]: decreased
osteoblast proliferation [4]: stimulation
minimum dose stimulating bone growth [5]: 68.2 mg of strontium (metal)
